Assay results taken from publication PMC8343220, “The selectivity of α‐adrenoceptor agonists for the human α1A, α1B, and α1D‐adrenoceptors” (Pharmacology Research & Perspectives, 2021).
Read-outs that look alike come from different tables or passages of the source. Marks after values point to notes of the source that are not given here.

What was measured:
human α1A‐adrenoceptor [1] = biological target: T1, human α1A‐adrenoceptor (Homo sapiens, UniProt P35348); assay: Intracellular free calcium mobilization, CHO‐α1A cells; type: cell-based
T1 construct: expressed in transfected cells; host or cells: CHO-K1
T1 sequence (P35348 1-466): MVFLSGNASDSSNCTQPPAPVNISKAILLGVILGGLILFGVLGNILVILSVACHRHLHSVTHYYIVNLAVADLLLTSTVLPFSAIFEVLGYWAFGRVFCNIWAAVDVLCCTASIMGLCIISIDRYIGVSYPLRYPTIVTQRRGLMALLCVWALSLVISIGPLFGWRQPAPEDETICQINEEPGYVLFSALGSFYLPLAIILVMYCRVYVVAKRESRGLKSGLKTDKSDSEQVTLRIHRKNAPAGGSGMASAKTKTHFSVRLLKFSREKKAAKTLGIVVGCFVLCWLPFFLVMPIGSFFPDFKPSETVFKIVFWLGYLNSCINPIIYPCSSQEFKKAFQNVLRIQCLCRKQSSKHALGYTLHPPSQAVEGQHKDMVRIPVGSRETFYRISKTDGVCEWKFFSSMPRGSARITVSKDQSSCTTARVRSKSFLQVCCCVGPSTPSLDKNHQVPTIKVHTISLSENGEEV

human α1B‐adrenoceptor [2] = biological target: T2, human α1B‐adrenoceptor (Homo sapiens, UniProt P35368); assay: Intracellular free calcium mobilization, CHO‐α1B cells; type: cell-based
T2 construct: expressed in transfected cells; host or cells: CHO-K1
T2 sequence (P35368 1-520): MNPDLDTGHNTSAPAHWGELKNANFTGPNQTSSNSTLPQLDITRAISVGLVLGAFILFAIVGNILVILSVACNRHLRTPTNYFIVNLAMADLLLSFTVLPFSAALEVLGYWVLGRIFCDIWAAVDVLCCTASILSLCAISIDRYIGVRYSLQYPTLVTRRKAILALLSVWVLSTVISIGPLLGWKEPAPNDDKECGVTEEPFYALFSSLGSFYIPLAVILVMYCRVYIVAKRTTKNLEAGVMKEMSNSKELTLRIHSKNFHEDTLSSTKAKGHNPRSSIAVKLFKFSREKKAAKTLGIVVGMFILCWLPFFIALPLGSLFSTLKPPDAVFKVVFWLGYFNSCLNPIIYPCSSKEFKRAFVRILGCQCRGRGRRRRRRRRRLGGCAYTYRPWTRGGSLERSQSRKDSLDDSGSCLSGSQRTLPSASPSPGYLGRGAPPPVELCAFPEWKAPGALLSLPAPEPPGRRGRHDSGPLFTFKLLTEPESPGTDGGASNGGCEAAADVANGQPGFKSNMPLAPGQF

[3] = biological target: T3, human α1D‐adrenoceptor (full length) (Homo sapiens, UniProt P25100); assay: Intracellular free calcium mobilization, CHO‐α1D cells; type: cell-based; details: for Intracellular calcium release % ionomycin: maximal response as % of 10 µM ionomycin
T3 construct: human α1D‐adrenoceptor (full length) were used; expressed in transfected cells; host or cells: CHO-K1
T3 sequence (P25100 1-572): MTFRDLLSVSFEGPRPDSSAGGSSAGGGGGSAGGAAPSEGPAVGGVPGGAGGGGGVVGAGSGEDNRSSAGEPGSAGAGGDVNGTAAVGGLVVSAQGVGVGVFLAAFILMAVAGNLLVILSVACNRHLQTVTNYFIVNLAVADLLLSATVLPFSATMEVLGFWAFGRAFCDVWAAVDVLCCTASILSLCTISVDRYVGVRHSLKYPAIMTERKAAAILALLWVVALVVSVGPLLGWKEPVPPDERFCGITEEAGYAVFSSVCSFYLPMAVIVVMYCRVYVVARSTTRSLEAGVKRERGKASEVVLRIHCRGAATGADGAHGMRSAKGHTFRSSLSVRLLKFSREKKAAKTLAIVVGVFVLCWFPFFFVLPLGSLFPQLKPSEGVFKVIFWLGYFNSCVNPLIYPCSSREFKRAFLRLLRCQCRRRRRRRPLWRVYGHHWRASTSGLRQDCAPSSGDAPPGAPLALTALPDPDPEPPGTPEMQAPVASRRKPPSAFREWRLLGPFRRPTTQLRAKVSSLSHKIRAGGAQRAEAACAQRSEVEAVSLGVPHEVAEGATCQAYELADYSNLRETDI

[4] = test system: parental CHO cell line without any transfected receptors; assay: Intracellular calcium mobilization, parent CHO cells without transfected receptors; type: cell-based, Chinese hamster; details: Cricetulus griseus, read-out: Intracellular calcium release % ionomycin
human α1A‐adrenoceptor [5] = biological target: T1, human α1A‐adrenoceptor; assay: ERK1/2‐phosphorylation (Surefire Alphascreen), CHO‐α1A cells; type: cell-based
human α1B‐adrenoceptor [6] = biological target: T2, human α1B‐adrenoceptor; assay: ERK1/2‐phosphorylation (Surefire Alphascreen), CHO‐α1B cells; type: cell-based
[7] = biological target: T3, human α1D‐adrenoceptor (full length); assay: ERK1/2‐phosphorylation (Surefire Alphascreen), CHO‐α1D cells; type: cell-based
[8] = test system: parental CHO cell line without any transfected receptors; assay: ERK1/2‐phosphorylation, parent CHO cells without transfected receptors; type: cell-based, Chinese hamster
human α1A‐adrenoceptor [9] = biological target: T1, human α1A‐adrenoceptor; assay: ^3H‐cAMP accumulation, CHO‐α1A cells; type: cell-based; details: CHO‐α1A cells; % of 10 µM forskolin response
[10] = test system: parental CHO cell line without any transfected receptors; assay: Forskolin‐stimulated cAMP accumulation, parent CHO cells without transfected receptors; type: cell-based, Chinese hamster; details: for cAMP accumulation (in presence of forskolin) % forskolin-stim cAMP at 100μM: CHO cells without transfected receptors, response at 100μM only, EC50 not obtainable, % of forskolin-stimulated cAMP
[11] = biological target: T3, human α1D‐adrenoceptor (full length); assay: ^3H‐prazosin whole‐cell radioligand binding, CHO‐α1D cells
human α1B‐adrenoceptor [12] = biological target: T2, human α1B‐adrenoceptor; assay: ^3H‐cAMP accumulation, CHO‐α1B cells; type: cell-based; details: CHO‐α1B cells; % forskolin maximum response
human α1A‐adrenoceptor [13] = biological target: T1, human α1A‐adrenoceptor; assay: ^3H‐prazosin whole‐cell radioligand binding, CHO‐α1A cells
human α1B‐adrenoceptor [14] = biological target: T2, human α1B‐adrenoceptor; assay: ^3H‐prazosin whole‐cell radioligand binding, CHO‐α1B cells
[15] = CHO cells without transfected receptors, response at maximum concentration used (c2), as % of ionomycin (10μM) response, mean ± s.e.m.
[16] = CHO‐α1D cells, maximal response as % of PDBu
[17] = CHO cells without transfected receptors, maximal response as % of PDBu (10μM) response, mean ± s.e.m.
[18] = 3H‐prazosin binding Log KD, CHO‐α1D cells, whole‐cell binding (from Table 1), log values given negative
[19] = CHO‐α1D cells, given as log KD (negative), mean ± SEM, 'early plateau' = specific binding not fully inhibited
[20] = CHO‐α1D cells, log values given negative

Row | Compound | Intracellular calcium release % ionomycin ([3]; CHO‐α1D cells) | Emax [4, 15] [%] | ERK1/2‐phosphorylation % PDBu [7, 16] | ERK1/2-phosphorylation % PDBu [8, 17] | cAMP accumulation % forskolin (human α1A‐adrenoceptor [9]) [%] | cAMP accumulation (in presence of forskolin) % forskolin-stim cAMP at 100μM [10] [%] | Kd [11, 18] [nM] | Kd [11, 19] [nM] | ERK1/2‐phosphorylation % PDBu (human α1A‐adrenoceptor [5]) [%] | ERK1/2‐phosphorylation % PDBu (human α1B‐adrenoceptor [6]) [%] | ERK1/2‐phosphorylation % PDBu at 100 µM [7] | cAMP accumulation % forskolin (human α1B‐adrenoceptor [12]) | Intracellular calcium release % ionomycin (human α1A‐adrenoceptor [1]) [%] | Intracellular calcium release % Ionomycin at 100 µM [3] [%] | Affinity selectivity ratio α1A vs α1B (human α1A‐adrenoceptor [13]) [fold] | Kd (human α1A‐adrenoceptor [13]) [nM] | Affinity selectivity ratio α1B vs α1D [11] [fold] | ERK1/2-phosphorylation Log EC50 [8] | also measured
1 | O=C1CC2(CCCC2)CC(=O)N1CCCCN1CCN(c2ncccn2)CC1 [Buspirone] | 9.0 ± 1.5% | 3.1 ± 2.3 | 11.3 ± 2.5% | No response | 3.3 ± 0.06 | 113.6 ± 5.2 |  |  |  |  |  |  |  |  |  |  |  |  | Intracellular calcium release % ionomycin (human α1A‐adrenoceptor [1]; CHO‐α1A cells, maximal response as % of 10 µM ionomycin): 46.7 ± 3.0%; Intracellular calcium release % ionomycin (human α1B‐adrenoceptor [2]; CHO‐α1B cells, maximal response as % of 10 µM ionomycin response): 47.8 ± 3.2%; ERK1/2‐phosphorylation % PDBu (human α1A‐adrenoceptor [5]; CHO‐α1A cells, % of 10 µM PDBu, ^a bi‐phasic: initial stimulatory part): 47.3 ± 10.6%; ERK1/2‐phosphorylation % PDBu (human α1B‐adrenoceptor [6]; CHO‐α1B cells, maximal response as % PDBu response, for bi‐phasic responses the initial stimulatory part): 47.2 ± 8.6%
2 | Cc1cccc(Cc2c[nH]cn2)c1C [Detomidine] |  | 4.3 ± 1.7 |  |  | 17.3 ± 1.9 | 83.2 ± 4.9 | 977 | 977 | 84.2 ± 3.8 | 31.5 ± 5.4 | 12.3 ± 2.4% | 2.8 ± 0.6% |  |  |  |  |  |  | Emax at 100 µM ([8]; Cricetulus griseus, CHO, read-out: ERK1/2-phosphorylation % PDBu at 100μM): 6.1 ± 4%
3 | CC(CCc1ccccc1)NCC(O)c1ccc(O)c(C(N)=O)c1 (centres unmarked) [Labetolol] |  | 10.3 ± 3.1 |  |  | 4.5 ± 0.6 |  |  |  | 71.3 ± 5.2 | 22.9 ± 6.3 | 36.5 ± 5.2 ^a % | No response | 36.9 ± 3.7 | 8.1 ± 1.6 |  |  |  |  | Intracellular calcium release % Ionomycin at 100 µM (human α1B‐adrenoceptor [2]): 2.5 ± 1.2%; EC50 ([8]; Cricetulus griseus, CHO, read-out: ERK1/2-phosphorylation Log EC50 (converted)): 2400 nM; Emax ([8]; Cricetulus griseus, CHO cells without transfected receptors, maximal response as % of PDBu (10μM) response, mean ± s.e.m., read-out: ERK1/2-phosphorylation % PDBu): 25.9 ± 3.4%; ERK1/2‐phosphorylation response in parent CHO cells ([8]; untransfected cells): stimulated ERK1/2‐phosphorylation responses; cAMP accumulation (in presence of forskolin) Log EC50 [10]: No response
4 | OCc1cc(C(O)CNCCCCCCOCCCCc2ccccc2)ccc1O (centres unmarked) [Salmeterol] | No response | 3.2 ± 1.4 | No response | No response |  |  | 1700 | 1700 |  |  |  |  |  |  | 9.5 | 776 | 4.4 | No response | Kd (human α1B‐adrenoceptor [14]; CHO‐α1B cells, given as log KD (negative), mean ± SEM): 7410 nM; Kd (human α1B‐adrenoceptor [14]; Log KD, ^3H‐prazosin binding, CHO‐α1B cells, whole‐cell binding (from Table 1), given as log KD (negative numbers)): 7410 nM; Intracellular calcium release % ionomycin at 10 µM (human α1A‐adrenoceptor [1]): 28.2 ± 2.7%; Intracellular calcium release % ionomycin at 10 µM (human α1B‐adrenoceptor [2]; CHO‐α1B cells, response at 10 µM ligand (no EC50 given), % of ionomycin response): 15.2 ± 4.0%; Intracellular calcium release Log EC50 [3, 20]: No response; ERK1/2‐phosphorylation Log EC50 [7, 20]: No response
5 | Cc1cccc(C)c1N=C1NCCCS1 [Xylazine] |  |  |  |  |  |  |  |  | 78.6 ± 5.8 | 26.4 ± 5.8 |  |  | 45.1 ± 2.2 | 3.8 ± 0.8 | 18.2 | 33100 | 21.9 | No response | Kd (human α1B‐adrenoceptor [14]): 603000 nM; Affinity selectivity ratio α1A vs α1D [11]: 1.2 fold; Kd [11]: 27500 nM; EC50 (human α1A‐adrenoceptor [1]): 1200 nM; Log efficacy ratio KD /EC50 (human α1A‐adrenoceptor [1]): 1.44; EC50 (human α1B‐adrenoceptor [2]): 4680 nM; Intracellular calcium release % ionomycin (human α1B‐adrenoceptor [2]): 30.4 ± 3.9%; Log efficacy ratio KD /EC50 (human α1B‐adrenoceptor [2]): 2.11; Emax ([4]; CHO): 2.3 ± 0.3%; EC50 (human α1A‐adrenoceptor [5]): 2040 nM; EC50 (human α1B‐adrenoceptor [6]): 6760 nM; ERK1/2‐phosphorylation % PDBu [7]: No response; ERK1/2‐phosphorylation Log EC50 [7]: No response; ERK1/2-phosphorylation % PDBu [8]: No response
